The target of this experiment is T1, EBP (Homo sapiens, UniProt Q15125).
T1 construct: HEK293T cells were utilized as the source of EBP enzyme; endogenous in cells; host or cells: HEK293T
The experiment can be described thus: EBP Functional Assay (EBP immunoaffinity LC-MS assay). It is filed as biochemical. Particulars: HEK293T cells as source of EBP enzyme; substrate zymosterol-d5, 37° C. for 4 h; percent conversion to dehydrolathosterol-d5 by LC-APCI MRM MS. As to the method:
The EBP immunoaffinity (IA) LC-MS assay measures the potency of small molecule inhibitors of EBP by quantifying their concentration-dependent changes in the enzyme's substrate and product using liquid chromatography atmospheric pressure chemical ionization multiple reaction monitoring mass spectrometry (LC-APCI MRM MS). HEK293T cells were utilized as the source of EBP enzyme. The enzyme was incubated with the small molecule inhibitors at variable concentrations for 30 min. Deuterated form of EBP substrate, zymosterol-d5 (Avanti Polar Lipids, Cat #700068P-1 mg), was then added and the plate was incubated at 37° C. for 4 h. Finally, the sterol isomers were extracted and injected to LC-APCI MRM MS. MRM transition used for the quantification for both zymosterol and […] (substrate and product of EBP enzymatic reaction, respectively) is 372.3-203.2, CE 30 and DP 80 in positive ion mode. Percent conversion of the zymosterol-d5 to dehydrolathosterol-d5 was used to derive IC50 curves. Tasin-1 (1′-[(4-Methoxyphenyl)sulfonyl]-4-methyl-1,4′-bipiperidine, CAS 792927-06-1) was used as the reference small molecule inhibitor.
Percent conversion versus the compound concentration data were fit to the following 4-parameter logistic model to generate IC50 curves: […]

SMILES strings stand for the structures. pIC50: −log10 of the molar value. Where only a bound is given, the exact number is not on record here.

T1 sequence (Q15125 whole entry): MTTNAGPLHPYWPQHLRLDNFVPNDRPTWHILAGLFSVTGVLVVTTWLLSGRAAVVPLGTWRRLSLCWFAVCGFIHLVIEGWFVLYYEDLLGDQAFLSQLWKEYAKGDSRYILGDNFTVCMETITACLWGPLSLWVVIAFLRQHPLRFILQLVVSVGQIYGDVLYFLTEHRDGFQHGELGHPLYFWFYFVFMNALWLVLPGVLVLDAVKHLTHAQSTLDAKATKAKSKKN

The molecule `O=S(=O)(c1cc2cccnc2cc1F)N1CCC2(CCC(N3CCOCC3)C2)CC1` (stereo not shown) [Example 31, 4-(8-((7-fluoroquinolin-6-yl)sulfonyl)-8-azaspiro[4.5]decan-2-yl)morpholine] had a pIC50 of 6.60 to 7.00.

In the case of `O=S(=O)(c1ccc(OC2CC2)cn1)N1CCC2(CCC(N3CCOCC3)C2)CC1` (stereo not shown) [Example 32, 4-(8-((5-Cyclopropoxypyridin-2-yl)sulfonyl)-8-azaspiro[4.5]decan-2-yl)morpholine], the negative-log IC50 (pIC50) is 5.82 to 6.60.

Consider `COc1nccc(S(=O)(=O)N2CCC3(CCC(N4CCOCC4)C3)CC2)c1F` (stereo not shown) [Example 33, 4-(8-((3-Fluoro-2-methoxypyridin-4-yl)sulfonyl)-8-azaspiro[4.5]decan-2-yl)morpholine], for which the pIC50 was above 7.00.

On to `COCCN(C)C1CCC2(CCN(S(=O)(=O)c3cc(C)cnc3OC)CC2)C1` (stereo not shown) [Example 40], for which the negative logarithm of the IC50 (pIC50) is 6.60 to 7.00.

As to `COc1ncc(C)cc1S(=O)(=O)N1CCC2(CCC(NC3(C)COC3)C2)CC1` (stereo not shown) [Example 41], the negative logarithm of the IC50 (pIC50) was 6.60 to 7.00.

In the case of `COc1ncc(C)cc1S(=O)(=O)N1CCC2(CCC(NC3(C)CCOC3)C2)CC1` (stereo not shown) [Example 42], the negative logarithm of the IC50 (pIC50) was above 7.00.

On to `COc1ncc(C)cc1S(=O)(=O)N1CCC2(CCC(N3CC4(CCOC4)C3)C2)CC1` (stereo not shown) [Example 43], for which the pIC50 was above 7.00.

Regarding `COCCNC1COC2(CCN(S(=O)(=O)c3cc(C#N)ccc3F)CC2)C1` (stereo not shown) [Example 44, 4-Fluoro-3-((3-((2-methoxyethyl)amino)-1-oxa-8-azaspiro[4.5]decan-8-yl)sulfonyl)benzonitrile], the pIC50 was 5.82 to 6.60.

For the molecule `N#Cc1ccc(F)c(S(=O)(=O)N2CCC3(CC2)CC(N2C[C@H]4C[C@@H]2CO4)CO3)c1` (stereo partly drawn) [Example 45, 3-((3-((1R,4R)-2-oxa-5-azabicyclo[2.2.1]heptan-5-yl)-1-oxa-8-azaspiro[4.5]decan-8-yl)sulfonyl)-4-fluorobenzonitrile], the pIC50 was 5.82 to 6.60.

Regarding `N#Cc1ccc(F)c(S(=O)(=O)N2CCC3(CC2)CC(N2CC4(COC4)C2)CO3)c1` (stereo not shown) [Example 46, 3-((3-(2-Oxa-6-azaspiro[3.3]heptan-6-yl)-1-oxa-8-azaspiro[4.5]decan-8-yl)sulfonyl)-4-fluorobenzonitrile], the negative-log IC50 (pIC50) is 5.82 to 6.60.

For `N#Cc1ccc(F)c(S(=O)(=O)N2CCC3(CC2)CC(N2CCCCC2)CO3)c1` (stereo not shown) [Example 47, 4-Fluoro-3-((3-(piperidin-1-yl)-1-oxa-8-azaspiro[4.5]decan-8-yl)sulfonyl)benzonitrile], the pIC50 was 6.60 to 7.00.

Regarding `N#Cc1ccc(F)c(S(=O)(=O)N2CCC3(CC2)CC(NC2CCC(F)(F)CC2)CO3)c1` (stereo not shown) [Example 48, 3-((3-((4,4-Difluorocyclohexyl)amino)-1-oxa-8-azaspiro[4.5]decan-8-yl)sulfonyl)-4-fluorobenzonitrile], the pIC50 is 6.60 to 7.00.

The molecule `Cc1ccc(S(=O)(=O)N2CCC3(CC2)CC(N2CC(C)(O)C2)CO3)c(Cl)c1` (stereo not shown) [Example 50, 1-(8-((2-Chloro-4-methylphenyl)sulfonyl)-1-oxa-8-azaspiro[4.5]decan-3-yl)-3-methylazetidin-3-ol] gave a negative logarithm of the IC50 (pIC50) of 6.60 to 7.00.

As for `Cc1ccc(S(=O)(=O)N2CCC3(CC2)CC(NC2CCOCC2)CO3)c(Cl)c1` (stereo not shown) [Example 51, 8-((2-Chloro-4-methylphenyl)sulfonyl)-N-(tetrahydro-2H-pyran-4-yl)-1-oxa-8-azaspiro[4.5]decan-3-amine], the negative logarithm of the IC50 (pIC50) was above 7.00.

`Cc1ccc(S(=O)(=O)N2CCC3(CC2)CC(N2CC(O)C2)CO3)c(Cl)c1` (stereo not shown) [Example 52, 1-(8-((2-Chloro-4-methylphenyl)sulfonyl)-1-oxa-8-azaspiro[4.5]decan-3-yl)azetidin-3-ol] had a pIC50 of 6.60 to 7.00.

`Cc1cc(OC(F)(F)F)ccc1S(=O)(=O)N1CCC2(CC1)CC(N1CCOCC1)CO2` (stereo not shown) [Example 54, 8-((2-Methyl-4-(trifluoromethoxy)phenyl)sulfonyl)-3-morpholino-1-oxa-8-azaspiro[4.5]decane]: the negative logarithm of the IC50 (pIC50) is 5.82 to 6.60.

With `COC1CN(C2COC3(CCN(S(=O)(=O)c4cnc(C5CC5)s4)CC3)C2)C1` (stereo not shown) [Example 55, 8-((2-Cyclopropylthiazol-5-yl)sulfonyl)-3-(3-methoxyazetidin-1-yl)-1-oxa-8-azaspiro[4.5]decane], the negative logarithm of the IC50 (pIC50) is 5.82 to 6.60.

For `Cn1nc(C2CC2)cc1S(=O)(=O)N1CCC2(CC1)CC(N1CC3(COC3)C1)CO2` (stereo not shown) [Example 56, 8-((3-Cyclopropyl-1-methyl-1H-pyrazol-5-yl)sulfonyl)-3-(2-oxa-6-azaspiro[3.3]heptan-6-yl)-1-oxa-8-azaspiro[4.5]decane], the pIC50 was 6.60 to 7.00.

The molecule `COC1CN(C2COC3(CCN(S(=O)(=O)c4cc(C5CC5)nn4C)CC3)C2)C1` (stereo not shown) [Example 58, 8-((3-Cyclopropyl-1-methyl-1H-pyrazol-5-yl)sulfonyl)-3-(3-methoxyazetidin-1-yl)-1-oxa-8-azaspiro[4.5]decane] had a pIC50 of 5.82 to 6.60.

As to `COCCNC1COC2(CCN(S(=O)(=O)c3cc(C4CC4)nn3C)CC2)C1` (stereo not shown) [Example 59, 8-((3-Cyclopropyl-1-methyl-1H-pyrazol-5-yl)sulfonyl)-N-(2-methoxyethyl)-1-oxa-8-azaspiro[4.5]decan-3-amine], the negative-log IC50 (pIC50) was 5.82 to 6.60.

Regarding `COCCN(C)C1COC2(CCN(S(=O)(=O)c3cc(C4CC4)nn3C)CC2)C1` (stereo not shown) [Example 60, 8-((3-Cyclopropyl-1-methyl-1H-pyrazol-5-yl)sulfonyl)-N-(2-methoxyethyl)-N-methyl-1-oxa-8-azaspiro[4.5]decan-3-amine], the pIC50 is 5.82 to 6.60.

`COc1ncc(Cl)cc1S(=O)(=O)N1CCC2(CC1)CC(N1CC(OC)C1)CO2` (stereo not shown) [Example 61, 8-((5-Chloro-2-methoxypyridin-3-yl)sulfonyl)-3-(3-methoxyazetidin-1-yl)-1-oxa-8-azaspiro[4.5]decane] gave a negative logarithm of the IC50 (pIC50) of 5.82 to 6.60.

In turn, `COc1ncc(Cl)cc1S(=O)(=O)N1CCC2(CC1)CC(N1CC3(COC3)C1)CO2` (stereo not shown) [Example 62, 8-((5-Chloro-2-methoxypyridin-3-yl)sulfonyl)-3-(2-oxa-6-azaspiro[3.3]heptan-6-yl)-1-oxa-8-azaspiro[4.5]decane] gave a negative-log IC50 (pIC50) of 5.82 to 6.60.

On to `N#Cc1ccc(Cl)c(S(=O)(=O)N2CCC3(CC2)CC(N2CC4(COC4)C2)CO3)c1` (stereo not shown) [Example 64, 3-((3-(2-Oxa-6-azaspiro[3.3]heptan-6-yl)-1-oxa-8-azaspiro[4.5]decan-8-yl)sulfonyl)-4-chlorobenzonitrile], for which the negative-log IC50 (pIC50) is 5.82 to 6.60.

In the case of `COCCNC1COC2(CCN(S(=O)(=O)c3cc(C)cnc3OC)CC2)C1` (stereo not shown) [Example 65, 8-((2-Methoxy-5-methylpyridin-3-yl)sulfonyl)-N-(2-methoxyethyl)-1-oxa-8-azaspiro[4.5]decan-3-amine], the pIC50 is 6.60 to 7.00.

The molecule `[2H]C([2H])([2H])N(CCOC)C1COC2(CCN(S(=O)(=O)c3cc(C)cnc3OC)CC2)C1` (stereo not shown) [Example 66, 8-((2-Methoxy-5-methylpyridin-3-yl)sulfonyl)-N-(2-methoxyethyl)-N-(methyl-d3)-1-oxa-8-azaspiro[4.5]decan-3-amine] gave a negative-log IC50 (pIC50) of 5.82 to 6.60.

On to `COCCN(C)C1COC2(CCN(S(=O)(=O)c3cc(C)cnc3OC)CC2)C1` (stereo not shown) [Example 67, 8-((2-Methoxy-5-methylpyridin-3-yl)sulfonyl)-N-(2-methoxyethyl)-N-methyl-1-oxa-8-azaspiro[4.5]decan-3-amine], for which the negative-log IC50 (pIC50) was 5.82 to 6.60.

Molecule `O=S(=O)(c1ccc(OC(F)F)cc1)N1CCC2(CC1)CC(N1CC3(CCOC3)C1)CO2` (stereo not shown) [Example 69, 8-((4-(Difluoromethoxy)phenyl)sulfonyl)-3-(6-oxa-2-azaspiro[3.4]octan-2-yl)-1-oxa-8-azaspiro[4.5]decane] had a negative-log IC50 (pIC50) of 5.82 to 6.60.

`O=S(=O)(c1ccc(OC(F)F)cc1)N1CCC2(CC1)CC(N1CCC3(CCOC3)C1)CO2` (stereo not shown) [Example 70, 8-((4-(Difluoromethoxy)phenyl)sulfonyl)-3-(2-oxa-7-azaspiro[4.4]nonan-7-yl)-1-oxa-8-azaspiro[4.5]decane] showed a pIC50 of 5.82 to 6.60.

The molecule `Cc1cc(S(=O)(=O)N2CCC3(CCC(N4CCC(C)(O)CC4)C3)CC2)n(C)n1` (stereo not shown) [Example 84, 1-(8-((1,3-dimethyl-1H-pyrazol-5-yl)sulfonyl)-8-azaspiro[4.5]decan-2-yl)-4-methylpiperidin-4-ol] showed a negative-log IC50 (pIC50) of 6.60 to 7.00.

For `Cc1cc(S(=O)(=O)N2CCC3(CCC(N4C[C@@H]5C[C@H]4CO5)C3)CC2)n(C)n1` (stereo partly drawn) [Example 87, (1S,4S)-5-(8-((1,3-dimethyl-1H-pyrazol-5-yl)sulfonyl)-8-azaspiro[4.5]decan-2-yl)-2-oxa-5-azabicyclo[2.2.1]heptane], the pIC50 is 5.82 to 6.60.

`Cc1cc(S(=O)(=O)N2CCC3(CCC(N4C[C@H]5C[C@@H]4CO5)C3)CC2)n(C)n1` (stereo partly drawn) [Example 88, (1R,4R)-5-(8-((1,3-dimethyl-1H-pyrazol-5-yl)sulfonyl)-8-azaspiro[4.5]decan-2-yl)-2-oxa-5-azabicyclo[2.2.1]heptane] showed a pIC50 of 6.60 to 7.00.

The molecule `O=S(=O)(c1ccc(OC(F)F)cc1)N1CCC2(CCC(N3C[C@@H]4C[C@H]3CO4)C2)CC1` (stereo partly drawn) [Example 89, (1S,4S)-5-(8-((4-(difluoromethoxy)phenyl)sulfonyl)-8-azaspiro[4.5]decan-2-yl)-2-oxa-5-azabicyclo[2.2.1]heptane] showed a pIC50 of 6.60 to 7.00.

Molecule `COCCN(C)C1CC2(CCN(S(=O)(=O)c3cc(C)nn3C)CC2)C1` [Example 91, 7-((1,3-dimethyl-1H-pyrazol-5-yl)sulfonyl)-N-(2-methoxyethyl)-N-methyl-7-azaspiro[3.5]nonan-2-amine] showed a negative-log IC50 (pIC50) of 5.82 to 6.60.

A word on the pIC50: it is the IC50 on a negative log10 scale, so that one unit is a factor of ten. Low readings indicate a large IC50, high ones a small IC50.
